{
  "source": "patent US20240125768A1",
  "about": "“METHODS FOR MODULATING A SRC-1 CONDENSATE” (ETERN BIOPHARMA (SHANGHAI) CO., LTD., priority 2021, published 2024)",
  "key": {"[1]": {"system": "YAP", "experiment": "ChIP-qPCR of YAP association on YAP target regions", "format": "cell-based, human", "details": "DMSO or elvitegravir", "description": "FIG. 7J illustrates the association of YAP on YAP targets regions (#1:ANKRD1enhancer, #2:PAWRpromoter, #3:NPPBpromoter, #4:CTGF promoter) were analyzed by ChIP-qPCR from cells treated with DMSO or elvitegravir. Data are representative of 3 independent experiments. Error bars indicate the s.e.m. of triplicate qPCR data.\nFIG. 7K illustrates the association of YAP on YAP target regions were analyzed by ChIP-qPCR in SF268 cells treated with EVG or DMSO. Error bars show mean±s.e.m. (n=3).\nBriefly, cells were crosslinked with 1% formaldehyde (Sigma) in culture medium for 10 min at room temperature, and chromatin from lysed nuclei was sheared to 200-1000 bp fragments using a Bioruptor® Pico (Diagenode SA). ˜50 μg of sheared chromatin and ˜2 μg of antibody were mixed. […] Quantitative real-time PCR was carried out with QuantStudio™ 6 Flex Real-Time PCR Systems (Thermofisher Scientific). The amount of immunoprecipitated DNA in each sample was determined as the fraction of the input, and normalized to the IgG control. […]\nChromatin immunoprecipitation antibodies are listed in Supplementary […] Supplementary Methods. […] Quantitative real-time PCR was carried out with QuantStudio™ 6 Flex Real-Time PCR Systems (Thermofisher Scientific). The amount of immunoprecipitated DNA in each sample was determined as the fraction of the input, and normalized to the IgG control."}, "[2]": {"system": "YAP target genes", "experiment": "RNA-seq global gene expression profiles in SF268 cells", "format": "cell-based, human", "details": "20 μM, 24 h", "description": "FIG. 7E illustrates SF268 cells treated with EVG were subjected to RNA-seq analysis. GSEA enrichment plots of genes involved in Hippo/YAP signaling.\nTotal RNA of three biological replicates was extracted from SF268 cells 24 h after treated with 20 μM EVG/DMSO using TRIzol™ Reagent (15596018, Invitrogen). RNAseq libraries were prepared using the Illumina TruSeq RNA Sample Prep kit v2 and sequenced using the Illumina HiSeq Xten platform (150-bp paired-end reads). We mapped the RNA-seq sequencing reads to the human reference transcriptome (GRCh37.71) using HISAT259 version 2.0.1. Differentially expressed genes in elvitegravir-treatment group were identified with the R package DESeq."}, "[3]": {"system": "lung cancer cell lines", "experiment": "Cell proliferation of lung cancer cell lines", "format": "cell-based", "description": "FIG. 7V illustrates cell proliferation (lung cancer cells and normal cells) affected by the treatment with elvitegravir. Error bars show mean±s.e.m. (n=3).\nAfter 6 days [or other time period as indicated] culture, cell viability was measured using CellTiter-Glo® Luminescent Cell Viability Assay (Promega, G7572) and DMSO group was used as normalization to calculate half maximal inhibitory concentration (IC50) using Graphpad Prism software."}},
  "data": [
    {"smiles": "COc1cc2c(cc1Cc1cccc(Cl)c1F)c(=O)c(C(=O)O)cn2[C@H](CO)C(C)C", "note": "[EVG, 6-[(3-chloro-2-fluorophenyl)methyl]-1-[(2S)-1-hydroxy-3-methylbutan-2-yl]-7-methoxy-4-oxoquinoline-3-carboxylic acid]", "values": [
      {"measurement": "access of YAP to target genes (association of YAP on YAP target regions)", "setting": "[1]", "value": "excluding the possibility that EVG may block the access of YAP to target genes"},
      {"measurement": "YAP target genes, global gene expression profiles", "setting": "[2]", "value": "downregulates"},
      {"measurement": "proliferation of lung cancer cell lines", "setting": "[3]", "value": "effectively inhibited"}
    ]}
  ]
}
